According to US20210322508A1, “PEPTIDES AND COMPOSITIONS FOR TARGETED TREATMENT AND IMAGING” (SIGNABLOK, INC., priority 2018, published 2021):

Tests used:
[1] = Mouse tolerability studies; type: in vivo; conditions: female, C57BL/6, mouse, in vivo, ip, 400 mg/kg; free form, healthy mice
Experimental: Naïve, female C57BL/6 mice at 8 to 10 weeks of age (18 to 21 g) from the Jackson Laboratory were used. […] Clinical observations and body weights were made twice daily.
Naïve, female C57BL/6 mice at 8 to 10 weeks of age (18 to 21 g) from the Jackson Laboratory were used. Animals were randomly grouped (5 mice per group) and i.p. injected with 400 mg/kg G-HV21, G-KV21 or G-TE21. Clinical observations and body weights were made twice daily.

[2] = tolerability in healthy mice (body weight); type: in vivo; conditions: healthy C57BL/6 mice, average weights
Experimental: As described herein, healthy C57BL/6 mice were intraperitoneally (i.p.) administered daily for 7 consecutive days with GF9 at indicated doses Mouse body weight (BW) was measured daily.

J774A.1 macrophages = assay: In vitro macrophage endocytosis of fluorescent peptides with or without HDL; type: cell-based, mouse; conditions: in the presence or absence of HDL
Experimental: The BALB/c murine macrophage cell line J774A.1 (ATCC TIB-67) were obtained from the American Type Culture Collection (ATCC, Manassas, Va.). The macrophage cells were cultured at 37° C. with 5% CO2 in Dulbecco's modified Eagle's medium (DMEM) (Cellgro, Mediatech Inc, Manassas, Va.) with 2 mM glutamine, 100 U/ml penicillin, 0.1 mg/ml streptomycin, and 10% fetal bovine serum (FBS) (Cellgro, Mediatech Inc, Manassas, Va.) and grown to approximately 90% of confluence in 6-well tissue culture plates (Corning, Tewksbury, Mass.). Cells were incubated for varied time periods from 4 to 24 h at 37° C. with fluorescently labeled peptides (pre-incubated with 1 mg/ml HDL) at a concentration of 4 μM rhodamine B (rho-B). After incubation, cells were washed twice with PBS and lysed using Promega passive lysis buffer (Promega, Madison, Wis.). The rho B fluorescence was measured in the lysates with a 540 nm excitation and a 590 nm emission filters using the Gemini EM fluorescence microplate reader (Molecular Devices, Sunnyvale, Calif.). The protein concentration in the lysates was determined using the Bradford reagent (Bio-Rad, Richmond, Calif.) and the SpectraMax 190 microplate reader (Molecular Devices, Sunnyvale, Calif.).
In one embodiment, after reaching target confluency, cells were incubated for 1 h in medium with or without fucoidan (400 μg/mL), BLT-1 (10 μM) or cytochalasin D (40 μM), Cells were subsequently incubated for 4 h and 22 h at 37° C. in medium containing 2 μM of rho B-labeled peptides G-KV21 and G-HV21 (as calculated for rho B) that were pre-incubated with 1 mg/ml HDL. After incubation, cells were washed twice with PBS and lysed using Promega passive lysis buffer. The rho B fluorescence and protein concentration were measured in the lysates as described above.

[3] = system: LPS-stimulated J774A.1 macrophages (TNF-alpha, IL-6, IL-1beta); assay: In vitro cytokine release by LPS-stimulated macrophages; type: cell-based, mouse; conditions: 10 ng/ml after pre-incubation with HDL; LPS 1 μg/ml, 24 h
Experimental: (§1) The BALB/c murine macrophage cell line J774A.1 (ATCC TIB-67) were obtained from the American Type Culture Collection (ATCC, Manassas, Va.). Macrophages were cultured in 48-well plates (Corning, Cambridge, Mass.) for 24 h at 37° C. in the presence of LPS (1 μg/ml, Escherichia coli 055:B5, Sigma) in combination with 10 ng/ml peptides either pre-incubated or not with HDL. Cell-free supernatants were harvested and stored at −20° C. for later cytokine quantification. TNF-alpha, IL-6, and IL-1beta were assayed using commercial ELISA kits (Pierce Biotechnology, Thermo Scientific, Rockford, Ill.) according to the recommendations of the manufacturer. Results were represented as the mean±S.D. of three independent experiments. Statistical significances in in vitro macrophage uptake assay were determined by two-tailed Student's t test.
as §1, with “Macrophages were cultured in 48-well plates (Corning, Cambridge, Mass.) for 24 h at 37° C. in the presence of LPS (1 μg/ml, Escherichia coli 055:B5, Sigma) in combination with 10 ng/ml peptides either pre-incubated or not with HDL.” left out

[4] = in vivo; cited from earlier work

Compound | behaviour on ultracentrifugation of whole mouse serum (mouse lipoproteins) | MTD [1] [mg/kg] | toxicity in healthy mice [2] | macrophage endocytosis, effect of sulfoxidized methionine residue (J774A.1 macrophages) | production of cytokines by LPS-stimulated macrophages [3] | safety in humans [4]
CC(C)C[C@H](NC(=O)[C@H](Cc1ccccc1)NC(=O)CN)C(=O)N[C@@H](CO)C(=O)N[C@@H](CCCCN)C(=O)N[C@@H](CO)C(=O)N[C@@H](CC(C)C)C(=O)N[C@H](C(=O)N[C@@H](Cc1ccccc1)C(=O)N[C@H](C(=O)N[C@@H](CCCCN)C(=O)N1CCC[C@H]1C(=O)N[C@@H](CCC(=O)O)C(=O)N[C@@H](CO)C(=O)N[C@@H](CCC(=O)O)C(=O)N[C@@H](CCCNC(=N)N)C(=O)N[C@@H](CC[S+](C)[O-])C(=O)N1CCC[C@H]1C(=O)N[C@@H](CS)C(=O)N[C@H](C(=O)N[C@@H](CCC(=O)O)C(=O)O)[C@@H](C)O)[C@@H](C)O)C(C)C (stereo partly drawn) [G-TE21, reference compound] | sedimentate with serum proteins | ≥ 400 | No toxicity was observed | does not promote macrophage endocytosis neither in the presence or absence of HDL | does not affect on cytokine release by LPS-stimulated macrophages | 
LQEEDAGEYGCM [LR12] |  |  |  |  |  | safe
